The values below are quoted from earlier work in patent publication US9738644B2, “Chemical compounds, compositions and methods for kinase modulation” (Infinity Pharmaceuticals, Inc., priority 2010, dated 2017).

One series has as its system B6.Sle1z.Sle3z model. As to conditions: cited from earlier work.
For series [1] the following is noted: reference compounds, 5 μM; cited from earlier work.
For series [2] the following is noted: PBS pH 7.4, 37° C., 24 hours; cited from earlier work.

As to `CO[C@H]1C[C@@H]2CC[C@@H](C)[C@@](O)(O2)C(=O)C(=O)N2CCCC[C@H]2C(=O)O[C@H]([C@H](C)C[C@@H]2CC[C@@H](OCCO)[C@H](OC)C2)CC(=O)[C@H](C)/C=C(\C)[C@@H](O)[C@@H](OC)C(=O)[C@H](C)C[C@H](C)/C=C/C=C/C=C/1C` [RAD001, everolimus], the lupus symptoms entry with B6.Sle1z.Sle3z model is “ameliorate lupus symptoms”.

On to `CC(C)[N+](C)(CCOC(=O)C1c2ccccc2Oc2ccccc21)C(C)C` [propantheline], for which, in series [1], the plasma stability result was “intermediate plasma stability”.

Take `CCCOc1cc(N)ccc1C(=O)OCCN(CC)CC` [propoxycaine]: in series [1], the plasma stability result is “low plasma stability”.

With `O=C(O)CCCc1ccc(N(CCCl)CCCl)cc1` [chlorambucil], the chemical stability result in series [2] is on record as “largely hydrolyzed over the course of 24 hours”.
